Assay results as given in US11352352B2, “Aminopyrimidine compound, preparation method therefor and use thereof” (BEIJING ADAMADLE BIOTECHNOLOGY LIMITED LIABILITY COMPANY, priority 2017, dated 2022).

Experiments:
Assay in all cases: Cell proliferation inhibition experiment, CellTiter-Glo (CTG) method
Assay type in all cases: cell-based
[1] = test system: A-431; details: A-431 cells, 3 days
Outline: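 Luminescent ATP read-out (CellTiter-Glo) after 3-day compound exposure at 37 °C; a T0 plate was read on the day of dosing. Nine concentrations, 3-fold steps, triplicate wells: A-431 from 30 μM, NCI-H1975 and PC-9 from 1.111 μM. IC50 by non-linear S-curve regression.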

[2] = test system: NCI-H1975; details: for IC50: NCI-H1975 cells, CTG, 3 days; for A-431/NCI-H1975 Selectivity: ratio of A-431 IC50 to NCI-H1975 IC50
Outline: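 NCI-H1975 cells with viability above 90% by trypan blue were seeded at 90 μL per well in black 96-well plates and incubated overnight at 37° C., 5% CO2. Compounds were added at nine concentrations in triplicate, and viability was measured with CellTiter-Glo luminescence on EnVision. IC50 came from non-linear S-curve fitting in GraphPad Prism 5.0.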

[3] = test system: PC-9; details: PC-9 cells, 3 days
Outline: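 Cells in log-phase growth (viability above 90% by trypan blue) were seeded at 90 μL per well in black-walled, clear-bottom 96-well plates and incubated overnight at 37° C., 5% CO2. A T0 plate was read the next day. Test compounds were added at nine concentrations in triplicate with a solvent control. Viability was measured by CellTiter-Glo luminescence on EnVision, and IC50 came from non-linear S-curve fitting in GraphPad Prism 5.0.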

IC50 ([1]; Homo sapiens, A-431, 72 h) [nM]	IC50 ([2]; Homo sapiens, NCI-H1975, 72 h) [nM]	IC50 ([3]; Homo sapiens, PC-9, 72 h) [nM]	IC50 [1] [nM]	IC50 [2] [nM]	IC50 [3] [nM]	Structure (SMILES)	A-431/NCI-H1975 Selectivity [2]
2300	89.7	67.2	–	–	–	C=CC(=O)Nc1cc(Nc2nccc(-c3ccc4c(cnn4C)c3)n2)c(OC)cc1N(C)CCNC(C)(C)C [compound 246]	25.6
1090	24	29.6	–	–	–	C=CC(=O)Nc1cc(Nc2cc(-c3ccc4ncsc4c3)ncn2)c(OC)cc1N1C[C@@H](C)N(C)[C@@H](C)C1 [compound 82]	45.6
988	51.6	23.5	–	–	–	C=CC(=O)Nc1cc(Nc2cc(-c3ccc4c(cnn4C)c3)ncn2)c(OC)cc1N1CCN(C2CC2)CC1 [compound 143]	19.2
1640	75.2	45.8	–	–	–	C=CC(=O)Nc1cc(Nc2cc(-c3cc4cnn(C)c4cc3F)ncn2)c(OC)cc1OCCN(C)C [compound 194]	21.8
973	24.5	25.7	–	–	–	C=CC(=O)Nc1cc(Nc2cc(-c3ccc4c(cnn4C)c3)ncn2)c(OC)cc1N1CCCN(C)CC1 [compound 39]	39.6
764	9.3	13.1	–	–	–	C=CC(=O)Nc1cc(Nc2cc(-c3ccc4c(cnn4CC)c3)ncn2)c(OC(F)F)cc1N(C)CCN(C)C [compound 92]	82.1
2180	42.9	65.4	–	–	–	C=CC(=O)Nc1cc(Nc2nccc(-c3ccc4c(cnn4CC)c3)n2)c(OCC)cc1N(C)CCN(C)C [compound 243]	50.8
1440	18.4	15.4	–	–	–	C=CC(=O)Nc1cc(Nc2cc(-c3ccc4cnn(C)c4c3)ncn2)c(OC)cc1N1CCN(C2CCOC2)CC1 (centres unmarked) [compound 215]	78.1
362	6.6	4.4	–	–	–	C=CC(=O)Nc1cc(Nc2cc(-c3ccc4cnn(C)c4c3)ncn2)c(OC)cc1N(C)CCN(C)C [compound 2]	–
954	19.9	14.8	–	–	–	C=CC(=O)Nc1cc(Nc2cc(-c3ccc4c(cnn4CC)c3)ncn2)c(OCC)cc1N(C)CCN(C)C [compound 89]	48.0
1350	32.4	24.7	–	–	–	C=CC(=O)Nc1cc(Nc2cc(-c3ccc4c(cnn4C)c3)ncn2)c(OC)cc1N1CCN(C)[C@@H](C)C1 [compound 30]	41.8
1150	31.9	10.6	–	–	–	C=CC(=O)Nc1cc(Nc2cc(-c3ccc4cnn(C)c4c3)ncn2)c(OC)cc1N(C)C1CCN(C)C1 (centres unmarked) [compound 74]	36.0
2980	90.4	64.7	–	–	–	C=CC(=O)Nc1cc(Nc2nccc(-c3ccc4c(cnn4C)c3)n2)c(OC2CC2)cc1N(C)CCN(C)C [compound 292]	32.9
1740	53.3	55.9	–	–	–	C=CC(=O)Nc1cc(Nc2cc(-c3ccc4cnn(C)c4c3)ncn2)c(OC(F)F)cc1N1CCN(CCN(C)C)CC1 [compound 182]	32.6
1530	31.9	27.9	–	–	–	C=CC(=O)Nc1cc(Nc2cc(-c3ccc4cnn(C)c4c3)ncn2)c(OC)cc1N1CCN(CCOC)CC1 [compound 159]	–
1460	37.1	33.7	–	–	–	C=CC(=O)Nc1cc(Nc2cc(-c3ccc4c(cnn4C)c3)ncn2)c(OC(F)F)cc1N1CCN(CCOC)CC1 [compound 145]	39.3

IC50 ([1]; Homo sapiens, A-431, 72 h) [nM]	IC50 ([2]; Homo sapiens, NCI-H1975, 72 h) [nM]	IC50 ([3]; Homo sapiens, PC-9, 72 h) [nM]	IC50 [1] [nM]	IC50 [2] [nM]	IC50 [3] [nM]	Structure (SMILES)	A-431/NCI-H1975 Selectivity [2]
2560	90.2	82.7	–	–	–	C=CC(=O)Nc1cc(Nc2nccc(-c3ccc4c(cnn4C)c3)n2)c(OC)cc1N1CCN(CCOC)CC1 [compound 232]	28.4
834	18.5	13.8	–	–	–	C=CC(=O)Nc1cc(Nc2cc(-c3ccc4cnn(C)c4c3)ncn2)c(OC(F)F)cc1N1CCC(N2C[C@@H](C)N(C)[C@@H](C)C2)CC1 [compound 163]	45.1
2100	37	40.8	–	–	–	C=CC(=O)Nc1c(N(C)CCN(C)C)cc(OC)c(Nc2nccc(-c3ccc4c(cnn4C)c3)n2)c1F [compound 261]	56.8
2850	13.3	27.7	–	–	–	C=CC(=O)Nc1cc(Nc2nccc(-c3ccc4c(cnn4C)c3)n2)c(OC)cc1NCCN(C)C [compound 248]	214.3
2040	47.8	55.7	–	–	–	C=CC(=O)Nc1cc(Nc2cc(-c3ccc4c(cnn4CC)c3)ncn2)c(OCC)cc1N(C)CCN(CC)CC [compound 94]	42.6
–	–	–	1100	20	10.7	C=CC(=O)Nc1cc(Nc2cc(-c3ccc4c(cnn4C)c3)ncn2)c(OC)cc1N1CCC(N2CCOCC2)CC1 [compound 208]	54.8
1250	82.8	32.7	–	–	–	C=CC(=O)Nc1cc(Nc2cc(-c3ccc4cnn(C)c4c3)ncn2)c(OC)cc1N1CCN(C2CCOCC2)CC1 [compound 46]	15.1
633	7.3	19.5	–	–	–	C=CC(=O)Nc1cc(Nc2cc(-c3ccc4c(cnn4C)c3)ncn2)c(OC)cc1N1CCC(N2CCN(C(C)C)CC2)CC1 [compound 101]	–
984	40.4	69.8	–	–	–	C=CC(=O)Nc1cc(Nc2cc(-c3ccc4cnn(C)c4c3)ncn2)c(OC(F)F)cc1N(C)CCN(CC)CC [compound 183]	24.4
948	18	16.8	–	–	–	C=CC(=O)Nc1cc(Nc2cc(-c3ccc4c(cnn4C)c3)ncn2)c(OC(F)F)cc1N(C)C1CCN(C)C1 (centres unmarked) [compound 111]	52.7
671	49	34	–	–	–	C=CC(=O)Nc1cc(Nc2cc(-c3ccc4cnn(C)c4c3)ncn2)c(OC)cc1N1CCCN(C)CC1 [compound 47]	13.7
1980	37.8	24.7	–	–	–	C=CC(=O)Nc1cc(Nc2cc(-c3ccc4cnn(C)c4c3)ncn2)c(OC(F)F)cc1N(C)CCN(C)C(C)C [compound 199]	52.3
1030	61.8	47.8	–	–	–	C=CC(=O)Nc1cc(Nc2cc(-c3ccc4cnn(C)c4c3)ncn2)c(OC)cc1N(C)CCN1CCN(C)CC1 [compound 78]	16.7
1550	57	40.5	–	–	–	C=CC(=O)Nc1cc(Nc2nccc(-c3ccc4cnn(C)c4c3)n2)c(OC)cc1N(C)CCN(C)C [compound 16]	27.1
2480	117	40.9	–	–	–	C=CC(=O)Nc1cc(Nc2nccc(-c3ccc4c(cnn4C)c3)n2)c(OC)cc1N1CCN(CCO)CC1 [compound 278]	21.2
2320	40.5	40.6	–	–	–	C=CC(=O)Nc1cc(Nc2cc(-c3ccc4cnn(C)c4c3)ncn2)c(OC)cc1N(C)C1CCN(CCOC)C1 (centres unmarked) [compound 223]	57.4
